# Laboratory results: patent US20260169002A1, “PROFILING NEWLY-SYNTHESIZED GLYCOPROTEINS AS MOLECULAR SIGNATURES OF INJURY IN DONOR ORGANS” (Carnegie Mellon University, priority 2022, published 2026)
# Assays:
# healthy rat lungs = assay: Effect of Ac4GalNAz probe on lung graft quality during EVLP (morphology, physiology); conditions: 100 μM Ac4GalNAz vs vehicle perfusion, monitored every hour, 4-hour EVLP
# Procedure: (§1) Ex vivo lung perfusion (EVLP) in rats: EVLP was performed using a commercially available rodent EVLP system (IL-2 Isolated Perfused Rat or Guinea Pig Lung System; Harvard Apparatus, Holliston, MA) as described elsewhere (Noda et al., 2014, Eur J Cardio-Thorac Surg., 45:e54-60; and (Noda et al., 2021, Sci Rep., 11:12265). Acellular Steen solution (XVIVO Perfusion AB, Denver, CO) was used for perfusate and lungs were medicated with methylprednisolone (SOLU-MEDROL®; Pfizer, Inc., New York, NY) and cephalosporin (Cefazolin; WG Critical Care LLC, Paramus, NJ) equally in all experimental groups using EVLP. […] Pulmonary artery pressure, peak airway pressure, and airway flow were monitored continuously, and dynamic lung compliance and pulmonary vascular resistance were also analyzed. […]
# Airspace morphology evaluation: Following EVLP, the lungs receiving Ac4GaIN Az or vehicle control administration were fixed in Formalin, embedded in paraffin, and sectioned to a thickness of 5 μm. […] Horizontal and vertical mean linear intercepts of each image were measured by Fiji software (Schindelin et al., 2012, Exp Rev Resp Med., 11:119-128), following a protocol described elsewhere (Crowley et al., 2019, BMC Pulm Med., 19:206) The mean values of horizontal and vertical mean linear intercepts of the three images were calculated as the estimated airspace size average of each lung section.
# rat lungs = assay: Bioorthogonal azide labeling of NewS-glycoproteins during EVLP, histological detection; conditions: 100 μM Ac4GalNAz vs 0.1% DMSO in Steen solution, 4-hour EVLP
# Procedure: as §1
# Immunostaining: Rehydrated rat or human lung sections were incubated with antigen unmasking solution at 95° C. for 20 minutes. […] For quantification, three random fields were taken in each lung section. Azide >biotin intensities for each field taken were measured by Fiji software (Schindelin et al., supra). Laminin channels were converted to 8-bit and intensities were measured for Laminin coverage areas. […]
# human lungs = assay: Bioorthogonal azide labeling during EVLP, histological detection in human lung sections; conditions: Ac4GalNAz vs vehicle in perfusate, 6 hour EVLP
# Procedure: Immunostaining: Rehydrated rat or human lung sections were incubated with antigen unmasking solution at 95° C. for 20 minutes. After cooling down, the sections were reacted with Alkyne-PEG4-biotin (Click Chemistry Tools, TA105) under copper-catalyzed cycloaddition (CuAAC) conditions (Rostovtsev et al., 2002, Angewandte Chemie., 114:2708-2711), or reacted without copper catalyst as a control. All samples were blocked with 1% bovine serum albumin (BSA) in PBS for 20 minutes and incubated with a primary antibody against Laminin (Abcam, Cambridge, UK; ab11575) at a dilution of 1:500. The slides were then stained with streptavidin conjugated to ALEXA FLUOR®-647 (Invitrogen, S21374) and Donkey-anti-Rabbit IgG conjugated to ALEXA FLUOR®-488 (Invitrogen, A32790) at a dilution of 1:500. All slides were mounted with DAPI-containing Fluoromount solution (SouthernBiotech, Birmingham, AL; 0100-20). Single-field images were taken using confocal microscopy and stitched images were taken by EVOS FL Auto 2 Imaging System (Thermo Fisher Scientific, Waltham, MA). For quantification, three random fields were taken in each lung section. Azide >biotin intensities for each field taken were measured by Fiji software (Schindelin et al., supra). Laminin channels were converted to 8-bit and intensities were measured for Laminin coverage areas. […]
# post-EVLP lungs = assay: LC-MS/MS proteomic analysis of Input and Eluate samples of lungs with or without Ac4GalNAz during EVLP; set-up: species or system rat; conditions: before affinity enrichment
# Procedure: Chemoselective enrichment of azide-tagged proteins: Cellular protein extracts of the lungs were reacted with Alkyne-PEG4-desthiobiotin (Click Chemistry Tools, 1109) under CuAAC conditions. Proteins were precipitated with four volumes of ice-cold acetone at −20° C. overnight to remove unreacted Alkyne-PEG4-desthiobiotin. The protein pellets were air-dried and re-dissolved in 2% SDS in PBS (pH 7.40), and then saved as Input samples. Following quantification by BCA, an aliquot of each Input sample containing 1.7 mg of protein was introduced to 75 μL streptavidin-conjugated resin (Thermo Fisher Scientific; 53117) for desthiobiotinylated protein pull-down. Following a 3-hour binding period, Supernatants were collected and the resins were washed 7 times for 15 minutes each with 2% SDS, 40 mM additional NaCl in PBS (pH 7.40). The pulled-down proteins were eluted with 30 mM biotin in 2% SDS, 40 mM additional NaCl in PBS (pH 7.40) (Eluting buffer) at room temperature for 1 hour. […] Protein concentrations of the Eluate samples were determined by BCA assay, and the eluates were then stored at −80° C. for SDS-PAGE and proteomic analysis. […]
# Samples were analyzed using a UPLC-MS/MS system consisting of an Easy-nLC 1200 ultra-high-pressure liquid chromatography system and an Orbitrap Fusion Lumos mass spectrometer (Thermo Fisher Scientific). […]
smiles,measurement,setting,value
"CC(=O)OC[C@H]1OC(OC(C)=O)[C@H](NC(=O)CN=[N+]=[N-])[C@@H](OC(C)=O)[C@H]1OC(C)=O (some centres unmarked) [Ac4GalNAz, N-azidoacetylgalactosamine-tetraacylated]",Lung compliance during EVLP,healthy rat lungs,no significant differences
same,Pulmonary vascular resistance during EVLP,healthy rat lungs,no significant differences
same,Azide labeling of lung tissue (azide→biotin fluorescence),rat lungs,robust and specific azide labeling
same,Azide labeling of lung tissue (azide→biotin fluorescence),human lungs,also was observed
same,"Effect on overall lung proteome (Input samples, Pearson correlation, hierarchical clustering)",post-EVLP lungs,did not significantly alter
